Laboratory results from patent US8440701B2, “Trisubstituted 1,2,4 triazoles” (Janssen Pharmaceutica NV, priority 2007, dated 2013).
Counter-ions that a name gives are not always drawn.

Columns and labels:
hα7-wt nAChR [1] = biological target: T1, hα7-wt nAChR (Homo sapiens, UniProt P36544); assay: Ca2+ flux imaging (FDSS), potentiation of choline response; assay type: cell-based; conditions: hα7-wt nAChR-expressing GH4C1 cells; potentiation of 100 μM choline; compounds 0.01 μM to 30 μM
T1 construct: expressed in transfected cells; host or cells: GH4C1 cells (recombinant, stably over-expressing)
Description: Ca^2+ Flux Imaging (FDSS)
• Hanks buffered saline solution (HBSS, Invitrogen, Belgium), supplemented with 10 mM HEPES (Invitrogen, Belgium), CaCl2 to a final concentration of 5 mM, 0.1% Bovine serum albumin (Sigma-Aldrich NV, Belgium). b) Calcium-Sensitive Dye—Fluo-4AM • Fluo-4AM (Molecular Probes, USA) was dissolved in DMSO containing 10% Pluronic acid (Molecular Probes, USA) to give a stock solution which was diluted in assay buffer supplemented with 5 mM probenicid (Sigma, Aldrich NV, Belgium) to give a final concentration of 2 μM. c) 384-Well Plates • Black 384 well plate black/clear plates, PDL pre-coated (Corning, Incorporated, USA) d) Calcium Flux Measurement • A Functional drug screening system (FDSS, Hamamatsu) was used to measure intracellular free-calcium flux signals. Method
Monolayers of hα7-wt nAChR-expressing GH4C1 cells were grown in multi-well plates, in particular black-sided, transparent bottomed 384 well plates coated with poly-D-lysine for 24 hours prior to loading with a fluorescent calcium indicator, in a particular embodiment loading with fluo-4AM for up to 120 minutes.
PAM activity was detected in real time by applying the compound to be tested to the loaded cells along with a α7 nicotinic receptor agonist during constant monitoring of the cellular calcium mobilization by fluorescence in a FDSS. Compounds giving peak fluorescent responses greater than the response due to agonist alone, were considered to be α7 nAChR PAM's. In a particular embodiment, the α7 nicotinic receptor agonist was choline, a more particular embodiment choline applied at a sub-maximal concentration of 100 μM. In a further setting of the present invention the compounds to be tested were applied prior to the α7 nicotinic receptor agonist, in a particular embodiment up to 10 minutes prior to the agonist.
A control response to choline was calculated on each plate from the difference in peak in fluorescence in wells receiving either choline or assay buffer alone. Compounds of the present invention were tested at a concentration range from 0.01 μM to 30 μM. Compounds were considered to have an interesting activity when they potentiated the choline signal at least with 200% when tested at a concentration of 30 μM (the efficacy of 100 μM choline was defined as 100% in the absence of a PAM).
EC50 values (potency), maximal effect (% efficacy), and Hill slopes were estimated by fitting the sigmoidal equation to the data using GraphPad Prism (GraphPad Software, Inc., San Diego, Calif.). An EC50 (or pEC50) was determined as a concentration relating to half the maximal effect, when a clear sigmoidal curve with top plateau was obtained.

hα7-wt nAChR [2] = biological target: T1, hα7-wt nAChR; assay: Whole-cell voltage-clamp recording, PAM type classification; assay type: cell-based; design: key: Type 1 compounds enhance the effect size of the current elicited by 1 mM choline but minimally alter the kinetics of the receptor.; Type 2 compounds enhance the effect size of the current elicited by 1 mM choline while reducing the rate and/or the extent of desensitization.; Type 3 compounds enhance the effect size of the current elicited by 1 mM choline. When tested at higher concentrations up to 10 μM they completely inhibit desensitization, in particular a 1 mM choline application of 250 milliseconds.; Type 4 compounds allow for an initial desensitization of the receptor followed by a re-opening of the receptor during agonist application; conditions: qualitative kinetic properties; 1 mM choline; hα7-wt nAChR-expressing GH4C1 cells
Description: The compounds of the present invention are classified as type 1-4, based on qualitative kinetic properties, as determined by whole-cell voltage-clamp recordings. This classification is based on the effect of an α7 PAM compound, as described hereinbefore, on the signal elicited by an agonist application. In particular, said agonist is choline at a concentration of 1 mM. In a preferred experimental setting, said α7 PAM compound and choline are simultaneously applied to the cell, as described hereinafter. Desensitization is defined as the closure of the receptor upon activation during the application of the agonist in whole-cell voltage-clamp electrophysiology measurements seen as the reduction of the […] current after initial activation by the agonist.
The definition of the PAM types 1-4 is described hereinafter: • Type 1 compounds enhance the effect size of the current elicited by 1 mM choline but minimally alter the kinetics of the receptor. In particular, the rate and the extent of desensitization, elicited by the agonist, is not affected. The compound-modulated response to 1 mM choline, therefore, is a close to linear scaling of the 1 mM choline response in absence of the α7 PAM compound. • Type 2 compounds enhance the effect size of the current elicited by 1 mM choline while reducing the rate and/or the extent of desensitization. • Type 3 compounds enhance the effect size of the current elicited by 1 mM choline. […] At low-potency concentrations of the α7 PAM compound, the agonist-induced activation, which is followed by desensitization, can still be separated from the compound-induced re-opening as an initial inward current-maximum. At higher potency concentrations of the α7 PAM compound, the re-opening occurs faster than the closure due to desensitization so that the initial current-maximum disappears.
The compounds of the present invention also have a potentiating effect on the response to choline when measured by whole-cell voltage-clamp electrophysiology in GH4C1 cells stably over-expressing the human wild-type α7 receptor, as described hereinafter.
Whole-Cell Voltage-Clamp Recording
Whole-cell voltage-clamp recording from mammalian cells has provided a powerful means of assessing the function of membrane proteins thought to be subunits of ligand-gated ion channels. Activation of such proteins by endogenous or exogenous ligands causes opening of a pore associated with the receptor through which ions flow down their electrochemical gradient. In the case of the hα7-wt nAChR-expressing GH4C1 recombinant cell line the preferential permeability to calcium of this receptor means that calcium flows into the cell upon activation by ACh, choline and other nicotinic ligands giving rise to a calcium current. Since this receptor rapidly desensitizes in the presence of an agonist it is important that an application system is used which is capable of very rapid switching of solutions (<100 ms) to prevent partial or full desensitisation of receptor responses coincident with the time of agonist application. Consequently, a second convenient technique to assess the enhancement of nicotinic efficacy is whole-cell voltage-clamp recording from hα7-wt nAChR-expressing GH4C1 cells coupled with a rapid-application system.
• The external recording solution consisted of 152 mM NaCl, 5 mM KCl, 1 mM MgCl2, 1 mM Calcium, 10 mM HEPES; pH 7.3. The internal recording solution consisted of 140 mM CsCl, 10 mM HEPES, 10 mM EGTA, 1 mM MgCl2, pH 7.3. • b) Patch-clamp recording was carried out using a Patch-clamp amplifier (Multiclamp 700A, Axon Instruments, CA, USA). The membrane potential of hα7-wt nAChR-expressing GH4C1 cells was voltage-clamped in the whole cell configuration (Hamill et al, 1981) with a borosilicate glass electrode of 1.5-3 MΩ tip resistance when filled with the internal recording solution. […]

T1 sequence (P36544 23-502): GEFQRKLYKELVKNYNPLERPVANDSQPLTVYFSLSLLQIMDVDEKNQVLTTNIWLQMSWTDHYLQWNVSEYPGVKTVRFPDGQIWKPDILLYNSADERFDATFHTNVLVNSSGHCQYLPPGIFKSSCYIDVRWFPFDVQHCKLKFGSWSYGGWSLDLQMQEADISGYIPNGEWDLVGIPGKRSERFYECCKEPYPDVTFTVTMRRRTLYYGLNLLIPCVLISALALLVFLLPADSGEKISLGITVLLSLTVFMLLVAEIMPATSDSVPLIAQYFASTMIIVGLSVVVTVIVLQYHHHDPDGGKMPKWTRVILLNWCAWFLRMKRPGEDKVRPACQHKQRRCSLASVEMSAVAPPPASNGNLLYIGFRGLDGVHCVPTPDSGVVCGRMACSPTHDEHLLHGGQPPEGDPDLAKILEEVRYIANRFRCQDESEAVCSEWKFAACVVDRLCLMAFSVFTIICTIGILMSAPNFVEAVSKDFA

| EC50 (hα7-wt nAChR [1]) | melting point | Compound | PAM_type (hα7-wt nAChR [2]) |
| --- | --- | --- | --- |
| 589 nM | 166.04 °C | CC[C@H](O)Cn1nc(Nc2ccc(F)c(F)c2)nc1-c1cc(C)nc(C)c1 [Compound E1, (S)-1-[3-(3,4-Difluoro-phenylamino)-5-(2,6-dimethyl-pyridin-4-yl)-[1,2,4]triazol-1-yl]-butan-2-ol] | 2 |
| 692 nM | 156.18 °C | CCNc1cc(-c2nc(Nc3ccc(F)c(F)c3)nn2CC(O)CC)ccn1 (stereo not shown) [Compound E25] | 1 |
| – | 137.96 °C | CCCCC(O)Cn1nc(Nc2ccc(F)c(F)c2)nc1-c1ccnc(C)c1 (racemic) [Compound E3, 1-[3-(3,4-Difluoro-phenylamino)-5-(2-methyl-pyridin-4-yl)-[1,2,4]triazol-1-yl]-hexan-2-ol] | – |
| 2090 nM | – | CC[C@H](O)Cn1nc(Nc2cc(F)cc(OC)c2)nc1-c1ccnc(C)c1 [Compound E36, (S)-1-[3-(3-Fluoro-5-methoxy-phenylamino)-5-(2-methyl-pyridin-4-yl)-[1,2,4]triazol-1-yl]butan-2-ol HCl salt] | 2 |
| 550 nM | – | CC[C@H](O)Cn1nc(Nc2ccc(F)c(F)c2F)nc1-c1ccnc(C)c1 [Compound E31, (S)-1-[5-(2-Methyl-pyridin-4-yl)-3-(2,3,4-trifluoro-phenylamino)-[1,2,4]-triazol-1-yl]-butan-2-ol] | 2 |
| 437 nM | 237.44 °C | CC[C@H](O)Cn1nc(Nc2ccc(F)c(F)c2F)nc1-c1cc(C)nc(C)c1.Cl [Compound E33, (S)-1-[5-(2,6-Dimethyl-pyridin-4-yl)-3-(2,3,4-trifluoro-phenylamino)-[1,2,4]triazol-1-yl]-butan-2-ol HCl salt] | – |
| 851 nM | – | CCCC(O)Cn1nc(Nc2cccc(Cl)c2)nc1-c1cc(C)nc(C)c1 (single isomer, unassigned) [Compound E24] | 2 |
| 200 nM | 166.05 °C | CC[C@H](O)Cn1nc(Nc2cc(OC)cc(C(F)(F)F)c2)nc1-c1cc(C)nc(C)c1 [Compound E30, (S)-1-[5-(2,6-Dimethyl-pyridin-4-yl)-3-(3-methoxy-5-trifluoromethyl-phenylamino)-[1,2,4]triazol-1-yl]-butan-2-ol] | 2 |
| 1290 nM | – | CCC(O)Cn1nc(Nc2cccc(Cl)c2)nc1-c1cc(C)nc(C)c1 (single isomer, unassigned) [Compound E18] | 1 |
| 417 nM | 134.82 °C | CCCC(O)Cn1nc(Nc2ccc(F)c(F)c2)nc1-c1ccnc(C)c1 (single isomer, unassigned) [Compound E16] | 2 |
| 1950 nM | 133.85 °C | CC[C@H](O)Cn1nc(Nc2ccc(F)c(C)c2)nc1-c1ccnc(C)c1 [Compound E19, (S)-1-[3-(4-Fluoro-3-methyl-phenylamino)-5-(2-methyl-pyridin-4-yl)-[1,2,4]triazol-1-yl]-butan-2-ol] | 2 |
| 1200 nM | 144.31 °C | CCC(O)Cn1nc(Nc2cccc(Cl)c2)nc1-c1ccnc(C)c1 (stereo not shown) [Compound E17] | 2 |
| 1020 nM | 158.66 °C | CCNc1cc(-c2nc(Nc3cccc(Cl)c3)nn2C[C@H](O)CC)ccn1 [Compound E29, (R)-1-[3-(3-chloro-phenylamino)-5-(2-ethylamino-pyridin-4-yl)-[1,2,4]triazol-1-yl]-butan-2-ol] | 1 |
| 316 nM | 139.48 °C | CCCC(O)Cn1nc(Nc2ccc(F)c(F)c2)nc1-c1cc(C)nc(C)c1 (single isomer, unassigned) [Compound E14] | 2 |
| 468 nM | – | CC[C@H](O)Cn1nc(Nc2cccc(Cl)c2F)nc1-c1cc(C)nc(C)c1 [Compound E35, (S)-1-[3-(3-Chloro-2-fluoro-phenylamino)-5-(2,6-dimethyl-pyridin-4-yl)-[1,2,4]-triazol-1-yl]-butan-2-ol HCl salt] | – |
| 513 nM | – | CC[C@H](O)Cn1nc(Nc2ccc(F)c(F)c2F)nc1-c1cc(C)nc(C)c1 [Compound E32, (S)-1-[5-(2,6-Dimethyl-pyridin-4-yl)-3-(2,3,4-trifluoro-phenylamino)-[1,2,4]triazol-1-yl]-butan-2-ol] | 2 |
| 832 nM | – | CCC(O)Cn1nc(Nc2cccc(Cl)c2)nc1-c1cc(C)nc(C)c1 (single isomer, unassigned) [Compound E21] | 2 |
| 209 nM | 134.6 °C | CCCCC(O)Cn1nc(Nc2ccc(F)c(F)c2)nc1-c1cc(C)nc(C)c1 (single isomer, unassigned; (-)) [Compound E4, (−)-1-[3-(3,4-Difluoro-phenylamino)-5-(2,6-dimethyl-pyridin-4-yl)-[1,2,4]triazol-1-yl]-hexan-2-ol] | – |
| 316 nM | – | CC[C@H](O)Cn1nc(Nc2cccc(Cl)c2F)nc1-c1cc(C)nc(C)c1 [Compound E34, (S)-1-[3-(3-Chloro-2-fluoro-phenylamino)-5-(2,6-dimethyl-pyridin-4-yl)-[1,2,4]triazol-1-yl]-butan-2-ol] | 2 |

| Compound | EC50 (hα7-wt nAChR [1]) | melting point | PAM_type (hα7-wt nAChR [2]) |
| --- | --- | --- | --- |
| CC[C@H](O)Cn1nc(Nc2cc(F)cc(OC)c2)nc1-c1cc(C)nc(C)c1.Cl [Compound E37, (S)-1-[5-(2,6-Dimethyl-pyridin-4-yl)-3-(3-fluoro-5-methoxy-phenylamino)-[1,2,4]triazol-1-yl]-butan-2-ol HCl salt] | 1580 nM | – | 2 |
